Consider one molecule from US20060183221A1, “Method for neural differentiation of embryonic stem cells using protease passaging techniques” (priority 2003, published 2006).

For test [1], the system named is SSEA4 selected HESCs. Nature of the test: Neural differentiation of SSEA4 selected bulk passaged HESCs as serum free embryoid bodies with or without MEDII and S18, seeded and immunostained. The format is cell-based, human. The settings on record: with or without 10 μM S18 from day 13 to day 17. Here is the method: Cultures were treated with or without 10 μM S18 from day 13 to day 17. After S18 treatment, serum free embryoid bodies were washed several times and cultured further until day 18. Serum free embryoid bodies were cut into pieces to seed down to polyornithine/laminin coated slides.
In the presence of MEDII, a consistently high proportion of the culture contained TH+ neurons, with the background of non-neural regions that was negative for the neuronal marker βIII-Tubulin typically lower than 10%. It was not determined whether the effect of MEDII induced more efficient neuralization or inhibited the generation of non-neural cell types. […] This proportion was determined by analysis of double staining of neural extensions for βIII-Tubulin and TH (FIG. 18), and overlaying Hoffman images with TH immunofluorescence (FIG. 19). The increase in the proportion of TH+ neurons in MEDII treated differentiations appeared to be due to the overall increase in neuronal differentiation, rather than an effect on the proportion of neurons that were dopaminergic, because the proportions of neurons that were TH+ in differentiations not exposed to MEDII was equally high. Another marker of DA cells, VMAT, was expressed in similarly high proportions of cells within the sfEBM cultures. TH+/VMAT−, TH−/VMAT+ and TH+/VMAT+ cells were observed (FIG. 20), possibly indicating temporal variability in the induction of expression of these markers prior to being co-expressed.

The subject of test [2] is Oct4. Nature of the test: Oct4 expression by immunoblotting in EB8 stage ES cells incubated with S18. The format is cell-based, mouse. The method, then:
In vitro differentiating ES cells at stage EB8 were incubated for 24-48 hours with 75 μM S18, or 35 μM N-acyl sphingosine or other ceramide analogs. Protein was isolated from cells incubated with S18 for 24 hours and from untreated cells, separated by SDS-PAGE, and the expression of Oct4 was analyzed by immunoblotting.
A general note: Immunoblotting shows a protein as a band on a membrane.

Test [3] concerns differentiating mouse ES cells (ES-J1). Nature of the test: Apoptosis (TUNEL staining) in differentiating mouse ES cells incubated with ceramide analogs. The conditions noted are these: for cell death: 20 hours with 75 μM S18; for TUNEL stained cells: 15 hours with 75 μM S16 or S18, or 35 μM C2-ceramide. The format is cell-based. The method, then: In vitro neural differentiation of mouse ES cells (ES-J1, ES-D3) followed a serum deprivation protocol as described previously (Hancock, et al., 2000, Biochem. Biophys. Res. Commun. 271: 418-421). The differentiation stages are outlined in FIG. 2. Briefly, ES cells were grown on gamma-irradiated feeder fibroblasts for four days in Knockout DMEM/15% Knockout serum replacement, supplemented with ESGRO (LIF; Chemicon; Cat No. ESG1106) at a concentration of […] medium. ES cells were then grown for another four days on gelatin-coated bacterial culture dishes without a fibroblast feeder layer, and were then grown for three days in Knockout DMEM/15% heat-inactivated ES qualified Fetal Bovine Serum, supplemented with 10^3 units LIF per ml of medium. Upon trypsinization, ES cells were transferred to bacterial culture dishes without gelatin, and embryoid body (EB) formation was induced for four days in Knockout DMEM/10% heat-inactivated ES qualified FBS without LIF (EB4 stage). On the fifth day, floating and loosely attached EBs were rinsed off and transferred to tissue culture dishes. The EBs were allowed to attach to the tissue culture dish surface by incubation for another 24 hours in Knockout DMEM with 10% heat-inactivated ES qualified fetal bovine serum. Neural differentiation due to serum deprivation was induced by cultivation of the EBs for three days in DMEM/F12 (50/50), supplemented with 1×N2 (Invitrogen/Life Technologies; Cat No. 17502, dilution of 1: 100) but without serum (EB8 stage). Serum-deprived EBs were then trypsinized, plated on poly-L-ornithine/laminin-coated tissue culture dishes and grown for four days in DMEM/F12 (50/50), supplemented with N2 and 10 ng/ml FGF-2, but without serum. his incubation period is referred to as neuroprogenitor (NP) stage due to commitment of neuroepithelial precursor cells to neuroprogenitor cells. These cells have committed during the EB stages and were expanded during the NP stage. NPs grown for 48 hours upon replating of trypsinized EBs were referred to as the NP2 stage. On the fifth day of NP formation, the medium was changed to Neurobasal (Invitrogen/Life Technologies; Cat No. 21103-049), with 5% heat-inactivated FBS, and the cells were incubated for another seven days. During this time, NPs fully differentiate to glial cells and neurons. Cells cultured for 24 hours or 96 hours upon changing the medium were referred to as the D1 or D4 stage, respectively.
ES cells were cultured and differentiated to the EB4, EB8, NP2, or D4 stage following the protocol as described above. The ceramide analog S18 was dissolved in ethanol at a concentration of 100 mM and then added to the cells at a final concentration of 75 μM in medium. The cells at the EB8 stage were incubated for 48 hours in the presence of the ceramide analog and were then transplanted into mouse brains.
Differentiating ES cells were grown on cover slips and fixed with 4% paraformaldehyde in phosphate-buffered saline (PBS). Fixed cells were permeabilized with 0.5% Triton X-100 in PBS for 5 minutes at room temperature and unspecific binding sites were saturated by incubation with 3% ovalbumin in PBS for 1 hour at 37° C. The cover slips were then incubated with 5 μg/ml primary antibody (anti-ceramide clone 15B4 mouse IgM, Alexis; anti-PAR-4 rabbit IgG, Santa Cruz; anti-PCNA rabbit IgG, Santa Cruz; anti-nestin clone 401 rat IgG, BD Pharmingen) in 0.1% ovalbumin/PBS, followed by incubation with the appropriate fluorescence-labeled secondary antibody (5 μg/ml Alexa 546 conjugated anti-mouse IgG, Molecular Probes; Alexa 488 conjugated anti-rabbit IgG, Molecular Probes, Cy3 conjugated anti-mouse IgM, Jackson) for 2 hours at 37° C. The nuclei were stained by treatment with 2 μg/ml Hoechst 33258 in PBS for 30 minutes at room temperature. Apoptotic nuclei were stained using the fluorescein FragEL TUNEL assay (Oncogene) according to the manufacturer's instructions. […]

In the case of `CCCCCCCC/C=C\CCCCCCCC(=O)NC(CO)CO` [S18, N-(2-hydroxy-1-(hydroxymethyl)ethyl)-oleoylamide], in test [1], the “differences between S18− and S18+ cultures (sfEB, sfEBM)” value is “No gross morphological or immunocytochemical staining differences were observed”. The “Oct4 protein level by immunoblot relative to untreated control cells” value in test [2] (75 μM S18 for 24 hours, SDS-PAGE immunoblot) amounted to 25%. For the same molecule, the “decrease in Oct4 protein levels” value in test [2] (after treatment with S18) was found to be 75%. The cell death entry is recorded as “high degree of cell death” in test [3] (EB8 and NP2 stages); “unaffected” in test [3] (differentiated neurons). The TUNEL stained cells was 45±10% in test [3] (EB8 stage) and 70±10% in test [3] (NP2 stage).
